{"source": "BindingDB's records for doi:10.1124/jpet.102.039867", "about": "(Institut De Recherches Servier, 2002)", "data": [{"molecular_target": "T1, Alpha-2C adrenergic receptor (Homo sapiens, UniProt P18825)", "T1 sequence (P18825 whole entry)": "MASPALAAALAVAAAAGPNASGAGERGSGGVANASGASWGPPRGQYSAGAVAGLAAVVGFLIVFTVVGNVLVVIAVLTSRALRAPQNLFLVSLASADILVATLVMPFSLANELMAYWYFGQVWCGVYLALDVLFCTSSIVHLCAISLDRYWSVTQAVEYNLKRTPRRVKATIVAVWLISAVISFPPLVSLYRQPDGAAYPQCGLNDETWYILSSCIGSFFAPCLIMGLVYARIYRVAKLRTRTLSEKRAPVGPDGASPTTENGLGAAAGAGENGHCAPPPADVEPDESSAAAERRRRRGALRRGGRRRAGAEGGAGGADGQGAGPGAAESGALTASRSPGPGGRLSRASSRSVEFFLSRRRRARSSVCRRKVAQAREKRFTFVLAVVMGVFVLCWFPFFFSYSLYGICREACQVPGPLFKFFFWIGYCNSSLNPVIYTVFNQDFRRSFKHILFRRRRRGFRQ", "units": {"Ki": "nM"}, "values": [{"smiles": "Oc1ccc2[nH]cc(CCCCN3CC=C(c4ccccc4)CC3)c2c1", "Ki": 1.78}, {"smiles": "CCN(CC)C(=O)N[C@H]1C[C@@H]2c3cccc4[nH]cc(c34)C[C@H]2N(C)C1", "Ki": 0.76}, {"smiles": "CCCN(CCC)CCc1cccc2c1CC(=O)N2", "Ki": 1200}, {"smiles": "CN(C)C1CCc2cc(O)c(O)cc2C1", "note": "(stereo not given) [(6,7-Dihydroxy-1,2,3,4-tetrahydro-naphthalen-2-yl)-dimethyl-ammonium]", "Ki": 6.03}, {"smiles": "CN1CCc2cccc3c2[C@H]1Cc1ccc(O)c(O)c1-3", "note": "[APOKYN]", "Ki": 36.3}, {"smiles": "C=CCN1CCc2nc(N)sc2CC1", "note": "[B-HT 920]", "Ki": 42.7}, {"smiles": "C=CCN1CC(C(=O)N(CCCN(C)C)C(=O)NCC)CC2c3cccc4[nH]cc(c34)CC21", "note": "(stereo not given) [NSC_54746]", "Ki": 22.4}, {"smiles": "CCCN1C[C@H](CSC)C[C@@H]2c3cccc4[nH]cc(c34)C[C@H]21", "note": "[Permax]", "Ki": 67.6}, {"smiles": "CCCNC1CCc2nc(N)sc2C1", "note": "(stereo not given) [Pramipexole]", "Ki": "> 10000"}, {"smiles": "CCCN1CCC[C@@H]2Cc3nc(N)ncc3C[C@H]21", "note": "[Quinerolane]", "Ki": "> 10000"}]}]}
